Converted amounts (≈) assume the structure as drawn. Read-outs that look alike come from different tables or passages of the source. Bridge positions count the residues as written; N and C are the ends. Square brackets hold non-standard residues; d marks the D form. Peptide text beside a SMILES is read from it. * marks the point of attachment. ξ: configuration not given here. dPhe(4-CN) = N#Cc1ccc(C[C@@H](N)C(=O)O)cc1; Octanoyl(6-Me) = CCC(C)CCCCC(=O)*; X27 = NCCC(C(=O)*)c1cccc(Cl)c1; dCha = N[C@H](CC1CCCCC1)C(=O)O; Thr(3ξ) = CC(O)[C@H](N)C(=O)O; X15 = NCCC(CC1CCCC1)C(=O)*; X21 = NCC(CC1CCCCC1)C(=O)*; Dab = NCC[C@H](N)C(=O)O; Dap = NC[C@H](N)C(=O)O
Columns and labels:
Type in all cases: cell-based
Escherichia coli = system: Escherichia coli
Protocol: (§1) To evaluate the potency and spectrum of the compounds, susceptibility testing was performed against up to nine strains of each of the Gram negative pathogens, Escherichia coli, Pseudomonas aeruginosa, Klebsiella pneumoniae and Acinetobacter baumannii.
(§2) The values in Table 2 are MIC (μg/mL) against strains of E. coli, K. pneumoniae, P. aeruginosa and A. baumanii, including strains which show elevated MICs to Polymyxin.
(§3) The values in Table 2A are MIC (μg/mL).
(§4) The in vitro activity of compounds 26 and C7 (FADDI-02) against resistant bacterial strains was compared. The resistant strains included including Escherichia coli, Pseudomonas aeruginosa, Klebsiella pneumoniae and Acinetobacter baumannii strains. The data is provided in Table 2C, where the strains are identified. The values in Table 2 are MIC (μg/mL).

Acinetobacter baumannii = system: Acinetobacter baumannii
Protocol: as §1, §2, §3, §4

Pseudomonas aeruginosa = system: Pseudomonas aeruginosa
Protocol: as §1, §2, §3, §4

Klebsiella pneumoniae = system: Klebsiella pneumoniae
Protocol: as §1, §2, §3, §4

SMILES	MIC E. coli 058 (Escherichia coli)	MIC E. coli 061 (Escherichia coli)	MIC E. coli ATCC 25922 (Escherichia coli)	MIC E. coli NCTC 9001 (Escherichia coli)	MIC A. baumanii 053 (Acinetobacter baumannii)	MIC A. baumanii 056 (Acinetobacter baumannii)	MIC A. baumanii ATCC BAA-747 (Acinetobacter baumannii)	MIC A. baumanii NCTC 13424 (Acinetobacter baumannii)	MIC P. aeruginosa 068 (Pseudomonas aeruginosa)	MIC P. aeruginosa 070 (Pseudomonas aeruginosa)	MIC P. aeruginosa ATCC 27853 (Pseudomonas aeruginosa)	MIC P. aeruginosa CCUG 59347 (Pseudomonas aeruginosa)	MIC K. pneumoniae 063 (Klebsiella pneumoniae)	MIC K. pneumoniae 065 (Klebsiella pneumoniae)	MIC K. pneumoniae ATCC 13882 (Klebsiella pneumoniae)	further results
CC(C)C[C@@H]1NC(=O)[C@@H](CC2CCCCC2)NC(=O)[C@H](CCN)NC(=O)[C@@H](NC(=O)[C@H](CN)NC(=O)[C@@H](NC(=O)C(CCN)Cc2cccc(F)c2)C(C)O)CCNC(=O)[C@H]([C@@H](C)O)NC(=O)[C@H](CCN)NC(=O)[C@H](CCN)NC1=O (single isomer, unassigned; isomer 2) [Example 45, 4-amino-2-(3-fluorobenzyl) butanoyl L-Thr-L-Dap-polymyxin [D-cyclohexylalanine]-6 heptapeptide. isomer 2]	4 µg/mL (≈ 3.48 µM)	16 µg/mL (≈ 13.9 µM)	0.25 µg/mL (≈ 0.218 µM)	0.06 µg/mL (≈ 0.0522 µM)	64 µg/mL (≈ 55.7 µM)	64 µg/mL (≈ 55.7 µM)	0.25 µg/mL (≈ 0.218 µM)	0.25 µg/mL (≈ 0.218 µM)	1 µg/mL (≈ 0.871 µM)	1 µg/mL (≈ 0.871 µM)	0.125 µg/mL (≈ 0.109 µM)	0.25 µg/mL (≈ 0.218 µM)	16 µg/mL (≈ 13.9 µM)	1 µg/mL (≈ 0.871 µM)	0.25 µg/mL (≈ 0.218 µM)	–
CC(C)C[C@@H]1NC(=O)[C@@H](CC2CCCCC2)NC(=O)[C@H](CCN)NC(=O)[C@@H](NC(=O)[C@H](CN)NC(=O)[C@@H](NC(=O)C(CN)CC2CCCCC2)C(C)O)CCNC(=O)[C@H]([C@@H](C)O)NC(=O)[C@H](CCN)NC(=O)[C@H](CCN)NC1=O (stereo partly drawn) [Example 31, 3-amino-2-(cyclohexylmethyl) propanoyl L-Thr-L-Dap-polymyxin [D-cyclohexylalanine]-6 heptapeptide] (X21-[Thr(3ξ)][Dap][Dab][Dab][dCha]L[Dab][Dab]T; lactam 3-C)	2 µg/mL (≈ 1.78 µM)	16 µg/mL (≈ 14.3 µM)	0.5 µg/mL (≈ 0.445 µM)	–	32 µg/mL (≈ 28.5 µM)	16 µg/mL (≈ 14.3 µM)	0.25 µg/mL (≈ 0.223 µM)	0.5 µg/mL (≈ 0.445 µM)	2 µg/mL (≈ 1.78 µM)	2 µg/mL (≈ 1.78 µM)	0.5 µg/mL (≈ 0.445 µM)	1 µg/mL (≈ 0.891 µM)	16 µg/mL (≈ 14.3 µM)	1 µg/mL (≈ 0.891 µM)	0.5 µg/mL (≈ 0.445 µM)	–
CC(C)C[C@@H]1NC(=O)[C@@H](CC2CCCCC2)NC(=O)[C@H](CCN)NC(=O)[C@@H](NC(=O)[C@H](CN)NC(=O)[C@@H](NC(=O)C(CCN)OCc2cccc(Cl)c2)[C@@H](C)O)CCNC(=O)[C@H]([C@@H](C)O)NC(=O)[C@H](CCN)NC(=O)[C@H](CCN)NC1=O (single isomer, unassigned; isomer 1) [Example 82, 4-amino-2-((3-chlorobenzyl)oxy) butanoyl L-Thr-L-Dap-polymyxin [D-cyclohexylalanine-6]heptapeptide. Isomer 1]	2 µg/mL (≈ 1.69 µM)	8 µg/mL (≈ 6.77 µM)	0.06 µg/mL (≈ 0.0508 µM)	0.015 µg/mL (≈ 0.0127 µM)	64 µg/mL (≈ 54.2 µM)	16 µg/mL (≈ 13.5 µM)	0.125 µg/mL (≈ 0.106 µM)	0.03 µg/mL (≈ 0.0254 µM)	4 µg/mL (≈ 3.39 µM)	8 µg/mL (≈ 6.77 µM)	0.125 µg/mL (≈ 0.106 µM)	0.125 µg/mL (≈ 0.106 µM)	32 µg/mL (≈ 27.1 µM)	2 µg/mL (≈ 1.69 µM)	0.125 µg/mL (≈ 0.106 µM)	–
CC(C)C[C@@H]1NC(=O)[C@@H](CC2CCCCC2)NC(=O)[C@H](CCN)NC(=O)[C@@H](NC(=O)[C@H](CCN)NC(=O)[C@@H](NC(=O)C(CCN)c2ccccc2)[C@@H](C)O)CCNC(=O)[C@H]([C@@H](C)O)NC(=O)[C@H](CCN)NC(=O)[C@H](CCN)NC1=O (single isomer, unassigned; isomer 2) [Example 64, 4-amino-2-phenylbutanoyl polymyxin [D-cyclohexylalanine]-6 nonapeptide isomer 2]	8 µg/mL (≈ 7.08 µM)	32 µg/mL (≈ 28.3 µM)	0.125 µg/mL (≈ 0.111 µM)	–	32 µg/mL (≈ 28.3 µM)	32 µg/mL (≈ 28.3 µM)	0.125 µg/mL (≈ 0.111 µM)	0.25 µg/mL (≈ 0.221 µM)	8 µg/mL (≈ 7.08 µM)	16 µg/mL (≈ 14.2 µM)	0.25 µg/mL (≈ 0.221 µM)	0.25 µg/mL (≈ 0.221 µM)	64 µg/mL (≈ 56.6 µM)	4 µg/mL (≈ 3.54 µM)	0.25 µg/mL (≈ 0.221 µM)	–
CCC(C)CCCCC(=O)N[C@@H](CCN)C(=O)N[C@H](C(=O)N[C@@H](CCN)C(=O)N[C@H]1CCNC(=O)[C@H]([C@@H](C)O)NC(=O)[C@H](CCN)NC(=O)[C@H](CCN)NC(=O)[C@H](CC(C)C)NC(=O)[C@@H](Cc2ccc(C#N)cc2)NC(=O)[C@H](CCN)NC1=O)C(C)O (stereo partly drawn) [Example 24, Polymyxin B[D-(4-cyano)Phe]-6] ({Octanoyl(6-Me)}-[Dab][Thr(3ξ)][Dab][Dab][Dab][dPhe(4-CN)]L[Dab][Dab]T; lactam 4-C)	4 µg/mL (≈ 3.26 µM)	16 µg/mL (≈ 13 µM)	0.125 µg/mL (≈ 0.102 µM)	–	>64 µg/mL	>64 µg/mL	0.25 µg/mL (≈ 0.203 µM)	0.25 µg/mL (≈ 0.203 µM)	32 µg/mL (≈ 26 µM)	>64 µg/mL	0.25 µg/mL (≈ 0.203 µM)	0.5 µg/mL (≈ 0.407 µM)	64 µg/mL (≈ 52.1 µM)	8 µg/mL (≈ 6.51 µM)	–	MIC K. pneumoniae ATCC 4352 (Klebsiella pneumoniae): 0.125 µg/mL (≈ 0.102 µM)
CC(C)C[C@@H]1NC(=O)[C@@H](CC2CCCCC2)NC(=O)[C@H](CCN)NC(=O)[C@@H](NC(=O)[C@H](CN)NC(=O)[C@@H](NC(=O)C(CCN)c2cccc(Cl)c2)[C@@H](C)O)CCNC(=O)[C@H]([C@@H](C)O)NC(=O)[C@H](CCN)NC(=O)[C@H](CCN)NC1=O (stereo partly drawn) [Example 79, 4-Amino-2-(3-chlorophenyl) butanoyl L-Thr-L-Dap-polymyxin [D-cyclohexylalanine]-6 heptapeptide.] (X27-T[Dap][Dab][Dab][dCha]L[Dab][Dab]T; lactam 3-C)	2 µg/mL (≈ 1.74 µM)	–	0.5 µg/mL (≈ 0.434 µM)	–	–	–	0.25 µg/mL (≈ 0.217 µM)	0.25 µg/mL (≈ 0.217 µM)	–	–	0.5 µg/mL (≈ 0.434 µM)	0.5 µg/mL (≈ 0.434 µM)	–	2 µg/mL (≈ 1.74 µM)	0.5 µg/mL (≈ 0.434 µM)	–
CC(C)C[C@@H]1NC(=O)[C@@H](CC2CCCCC2)NC(=O)[C@H](CCN)NC(=O)[C@@H](NC(=O)[C@H](CCN)NC(=O)[C@@H](NC(=O)CC(CN)C2CCCCC2)[C@@H](C)O)CCNC(=O)[C@H]([C@@H](C)O)NC(=O)[C@H](CCN)NC(=O)[C@H](CCN)NC1=O (single isomer, unassigned; isomer 1) [Example 86, 4-amino-3-cyclohexylbutanoyl polymyxin [D-cyclohexylalanine-6]nonapeptide. Isomer 1]	–	–	–	–	–	–	–	–	–	–	–	–	–	–	–	MIC E. coli 058 (Escherichia coli; strain 058): 8 µg/mL (≈ 7.04 µM); MIC E. coli 061 (Escherichia coli; strain 061): 32 µg/mL (≈ 28.2 µM); MIC E. coli ATCC 25922 (Escherichia coli; strain ATCC 25922): 0.125 µg/mL (≈ 0.11 µM); MIC E. coli NCTC 9001 (Escherichia coli; strain NCTC 9001): 0.06 µg/mL (≈ 0.0528 µM); MIC A. baumanii 053 (Acinetobacter baumannii; strain 053): >64 µg/mL; MIC A. baumanii 056 (Acinetobacter baumannii; strain 056): 64 µg/mL (≈ 56.3 µM); MIC A. baumanii ATCC BAA-747 (Acinetobacter baumannii; strain ATCC BAA-747): 0.125 µg/mL (≈ 0.11 µM); MIC A. baumanii NCTC 13424 (Acinetobacter baumannii; strain NCTC 13424): 0.125 µg/mL (≈ 0.11 µM); MIC P. aeruginosa 070 (Pseudomonas aeruginosa; strain 070): 8 µg/mL (≈ 7.04 µM); MIC P. aeruginosa ATCC 27853 (Pseudomonas aeruginosa; strain ATCC 27853): 0.25 µg/mL (≈ 0.22 µM); MIC P. aeruginosa CCUG 59347 (Pseudomonas aeruginosa; strain CCUG 59347): 0.5 µg/mL (≈ 0.44 µM); MIC K. pneumoniae 063 (Klebsiella pneumoniae; strain 063): >64 µg/mL; MIC K. pneumoniae 065 (Klebsiella pneumoniae; strain 065): 8 µg/mL (≈ 7.04 µM); MIC K. pneumoniae ATCC 13882 (Klebsiella pneumoniae; strain ATCC 13882): 0.5 µg/mL (≈ 0.44 µM)
CC(C)C[C@@H]1NC(=O)[C@@H](CC2CCCCC2)NC(=O)[C@H](CCN)NC(=O)[C@@H](NC(=O)[C@H](CCN)NC(=O)[C@@H](NC(=O)CC(CN)c2ccccc2)[C@@H](C)O)CCNC(=O)[C@H]([C@@H](C)O)NC(=O)[C@H](CCN)NC(=O)[C@H](CCN)NC1=O (single isomer, unassigned; isomer 1) [Example 56, 4-amino-3-phenylbutanoyl polymyxin [D-cyclohexylalanine]-6 nonapeptide isomer 1]	–	–	–	–	–	–	–	–	–	–	–	–	–	–	–	MIC E. coli 058 (Escherichia coli; strain 058): 16 µg/mL (≈ 14.2 µM); MIC E. coli ATCC 25922 (Escherichia coli; strain ATCC 25922): 0.25 µg/mL (≈ 0.221 µM); MIC A. baumanii ATCC BAA-747 (Acinetobacter baumannii; strain ATCC BAA-747): 0.125 µg/mL (≈ 0.111 µM); MIC A. baumanii NCTC 13424 (Acinetobacter baumannii; strain NCTC 13424): 0.125 µg/mL (≈ 0.111 µM); MIC P. aeruginosa ATCC 27853 (Pseudomonas aeruginosa; strain ATCC 27853): 0.25 µg/mL (≈ 0.221 µM); MIC P. aeruginosa CCUG 59347 (Pseudomonas aeruginosa; strain CCUG 59347): 0.5 µg/mL (≈ 0.442 µM); MIC K. pneumoniae 065 (Klebsiella pneumoniae; strain 065): 16 µg/mL (≈ 14.2 µM); MIC K. pneumoniae ATCC 13882 (Klebsiella pneumoniae; strain ATCC 13882): 0.25 µg/mL (≈ 0.221 µM)
CC(C)C[C@@H]1NC(=O)[C@@H](CC2CCCCC2)NC(=O)[C@H](CCN)NC(=O)[C@@H](NC(=O)[C@H](CCN)NC(=O)[C@@H](NC(=O)C(CCN)CC2CCCC2)[C@@H](C)O)CCNC(=O)[C@H]([C@@H](C)O)NC(=O)[C@H](CCN)NC(=O)[C@H](CCN)NC1=O (stereo partly drawn) [Example 83, 4-amino-2-(cyclopentylmethyl) butanoyl polymyxin [D-cyclohexylalanine-6]nonapeptide] (X15-T[Dab][Dab][Dab][dCha]L[Dab][Dab]T; lactam 3-C)	4 µg/mL (≈ 3.52 µM)	16 µg/mL (≈ 14.1 µM)	0.5 µg/mL (≈ 0.44 µM)	0.06 µg/mL (≈ 0.0528 µM)	>64 µg/mL	64 µg/mL (≈ 56.3 µM)	0.125 µg/mL (≈ 0.11 µM)	0.06 µg/mL (≈ 0.0528 µM)	2 µg/mL (≈ 1.76 µM)	8 µg/mL (≈ 7.04 µM)	0.25 µg/mL (≈ 0.22 µM)	0.25 µg/mL (≈ 0.22 µM)	16 µg/mL (≈ 14.1 µM)	1 µg/mL (≈ 0.88 µM)	0.25 µg/mL (≈ 0.22 µM)	–
